# Results: patent US8212058B2, “Fluorescent photoprobe for the imaging of endothelin receptors” (Universitatskilinikum Munster, priority 2005, dated 2012)
# “Also recorded” adds a separate entry of the source.
# What was measured:
# [1] = molecular target: endothelin receptors; test: Competition binding studies with [125I]ET-1 on mouse ventricular membrane preparations; settings: read-out: dissociation constant KD; Scatchard transformation of saturation data, mouse ventricular membranes
# Description: Microsomes were prepared by homogenizing ventricles from DBA mice at 4° C. for 90 seconds in 1 ml of buffer A (10 mM EDTA, 10 mM HEPES, 0.1 mM benzamidine, pH 7.4), using a Polytron PT 3000 (Kinematica, Luceme, Switzerland). Homogenates were centrifuged at 45,000× gmax for 15 min at 4° C. The pellets were resuspended in 1 ml of buffer B (1 mM EDTA, 10 mM HEPES, 0.1 mM benzamidine, pH 7.4) and recentrifuged at 45,000× gmax for 15 min at 4° C. The pellets were resuspended in 1 ml of buffer B and centrifuged at 10,000× gmax for 10 min at 4° C. The supernatants were recentrifuged at 45,000×gmax for 15 min at 4° C. […]
# For competition binding studies, the prepared membranes were resuspended in buffer D (10 mM Tris.HCl, 154 mM NaCl, 0.1 mM ascorbic acid, pH 7.4) at 0° C. […] The membrane bound radioactivity was determined in a γ-scintillation counter. Competition binding curves were analyzed by nonlinear regression analysis using the XMGRACE programme (Linux software).
# Different concentrations of the prepared compound (1.0 pM-100 μM) were incubated with 40 pM [^125I]ET-1 and a fixed amount of mouse ventricular membrane preparation (10 μg) at 37° C. for 4 h. The membrane bound radioactivity was evaluated using a γ-scintillation counter and standardized on percentage of [^125I]ET-1. […]
# [2] = molecular target: T1, ETA receptor on HT-1080 human fibrosarcoma cells (Homo sapiens, UniProt P25101); test: In vitro cell binding assay by fluorescence microscopy, HT-1080 cells; type: cell-based; settings: for cellular fluorescence signal (fluorescence microscopy): HT-1080 cells, 45 min at 4° C.
# T1 construct: The highest amount of protein is found in human fibrosarcoma cells HT-1080; host or cells: HT-1080
# T1 sequence (P25101 21-427): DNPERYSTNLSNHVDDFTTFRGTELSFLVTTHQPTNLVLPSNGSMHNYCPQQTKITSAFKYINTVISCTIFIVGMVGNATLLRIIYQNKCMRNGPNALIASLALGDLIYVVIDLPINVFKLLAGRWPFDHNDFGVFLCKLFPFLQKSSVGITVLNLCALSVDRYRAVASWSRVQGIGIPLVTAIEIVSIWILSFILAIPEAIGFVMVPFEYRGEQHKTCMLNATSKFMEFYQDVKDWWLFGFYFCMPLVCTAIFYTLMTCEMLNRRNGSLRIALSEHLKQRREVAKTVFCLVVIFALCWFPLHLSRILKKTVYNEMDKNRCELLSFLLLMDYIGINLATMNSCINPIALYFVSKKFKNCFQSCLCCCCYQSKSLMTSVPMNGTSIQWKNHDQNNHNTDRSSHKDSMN
# Description: Cell lines and reagents. Human breast adenocarcinoma cell line MCF-7 (ATCC-No. HTB-22), MDA-MB-435 human breast carcinoma cells (ATCC-No. HTB-123) and HT-1080 human fibrosarcoma cells (ATCC-No. CCL-121) were cultured in RPMI 1640 (Invitrogen Corporation, San Diego, USA) supplemented with 10% fetal calf serum, penicillin and streptomycin. Cells were grown routinely in a monolayer culture at 37° C. in a 5% CO2 humidified air atmosphere.
# (§1) Cell binding assays. Cells (HT-1080 fibrosarcomas, MDA-MB435 ductal carcinomas, MCF-7 adenocarcinomas) were seeded in 4-well plates (Nunc GmbH & Co. KG, Wiesbaden, Germany) and incubated in culture medium (0.5 ml/well) overnight. For binding studies cells were washed twice with PBS and resuspended in 150 μl binding buffer (20 mM HEPES in PBS with Ca^2+/Mg^2+, 0.2% BSA, 0.1% Glucose, pH 7.4). […] After an incubation period of 45 min at 4° C. cells were washed twice with PBS and were resuspended in binding buffer. […] Cells could be directly visualised by fluorescence microscopy (40× objective, Nikon TE 2000-S, Nikon-Düsseldorf, Germany). The microscope was equipped with a mercury vapour lamp (100 W), 620/775 nm and 545/675 nm (excitation/emission) filters (AHF Analysentechnik, Tbingen, Germany), a Nikon DXM1200F camera and ACT1/DXM1200F software (Nikon, Japan).
# (§2) In vitro cell binding assays. […] Binding of the labelled antagonist could be directly analysed by fluorescence microscopy.
# [3] = test system: ETA-negative MDA-MB-435 human breast carcinoma cells; test: In vitro cell binding assay by fluorescence microscopy, MDA-MB-435 cells; type: cell-based; settings: 45 min at 4° C.
# Excerpt: In vitro cell binding assays.
# [4] = test system: ETA receptor on MCF-7 human breast adenocarcinoma cells; test: In vitro cell binding assay by fluorescence microscopy, MCF-7 cells; settings: for cellular fluorescence signal (fluorescence microscopy): 45 min at 4° C., nmol amounts per well
# Description: Human breast cancer cell line MCF-7 (ATCC-No. HTB-22) was cultured in RPMI 1640 (Invitrogen Corporation, San Diego, USA) supplemented with 10% fetal calf serum, penicillin and streptomycin. Cells were grown routinely in a monolayer culture at 37° C. in a 5% CO2 humidified air atmosphere. Antibodies were murine IgGs and specific for the endothelin A receptor.
# Cells were seeded in 4-well plates (Nunc, Wiesbaden) and incubated in culture medium (0.5 ml/well) overnight. For binding studies cells were washed twice with PBS and resuspended in 150 μl binding-buffer (20 mM HEPES in PBS with Ca^2+/Mg^2+, 0.2% BSA, 0.1% Glucose, pH 7.4). […] After an incubation period of 45 min at 4° C. cells were washed twice with PBS and were resuspended in binding buffer. For competition binding studies free ETAR antagonist (final amount 50 nmol) or ETAR antibodies (1.3 μg) were added to each well for 45 min at 4° C. Cells could be directly visualized by fluorescence microscopy (40× and 60× objective, Nikon TE 2000-S, Nikon-Düsseldorf). The microscope was equipped with a mercury vapour lamp (100 W), 620/775 nm and 545/675 nm (excitation/emission) filters (AHF Analysentechnik, Tübingen), a Nikon DXM1200F camera and ACT1/DXM1200F software (Nikon, Japan).
# Binding of the labelled antagonist could be directly analyzed by fluorescence microscopy.
# as §1, §2
# [5] = molecular target: T2, ETAR in MDA-MB-435 tumor xenografts (Mus musculus, UniProt Q61614); test: In vivo FMT/FRI imaging of MDA-MB-435 murine xenograft models; parameters: species or system mice
# T2 construct: from tissue; host or cells: MDA-MB-435 tumour xenografts in mice (host-derived cells, e.g. endothelial)
# T2 sequence (Q61614 21-427): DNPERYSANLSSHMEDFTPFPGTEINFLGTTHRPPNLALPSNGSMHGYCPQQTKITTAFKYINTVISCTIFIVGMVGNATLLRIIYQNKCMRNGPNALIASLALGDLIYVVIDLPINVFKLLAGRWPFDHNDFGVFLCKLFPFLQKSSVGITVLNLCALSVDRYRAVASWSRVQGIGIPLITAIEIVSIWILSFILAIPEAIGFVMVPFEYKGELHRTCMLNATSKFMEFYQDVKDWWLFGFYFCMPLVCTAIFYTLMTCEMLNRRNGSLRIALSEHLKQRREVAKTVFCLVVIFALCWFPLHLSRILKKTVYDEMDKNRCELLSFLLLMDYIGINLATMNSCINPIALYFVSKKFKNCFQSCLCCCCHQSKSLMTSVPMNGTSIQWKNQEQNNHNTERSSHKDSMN
# Excerpt: FIG. 7: 3D-FMTexamination of MDA-MB-435 murine xenograft models.
# [6] = test system: ETAR in MCF-7 tumor xenografts; test: In vivo FMT/FRI imaging of MCF-7 tumor xenografts; parameters: species or system mice
# [7] = molecular target: T3, myocardial ETAR (Mus musculus, UniProt Q61614); test: In vivo FRI imaging of myocardial ETAR expression; settings: mice, pre-dosing with PD 156707
# T3 construct: from tissue; host or cells: mouse myocardium, in vivo
# T3 sequence (Q61614 21-427): T2 sequence (Q61614 21-427)
# Description: FIG. 6: In vivo application of the targeted fluorophore for imaging of myocardial ETAR—expression. Mice were injected with the targeted fluorophore with (middle) and without (right) pre-dosing with PD 156707. The left speciment is a saline injected control.
# [8] = molecular target: endothelin receptors; settings: literature value printed for comparison (lit.; ref. 37); cited from earlier work
# [9] = MDA-MB-435, block (100 nmol PD 156707 10 minutes before), 1 h
# [10] = MDA-MB-435, block (100 nmol PD 156707 10 minutes before), 3 h
# [11] = MDA-MB-435, block (100 nmol PD 156707 10 minutes before), 5 h
# [12] = MDA-MB-435, block (100 nmol PD 156707 10 minutes before), 24 h
# [13] = MDA-MB-435, nativ, 24 h, 2 nmol
compound,measurement,setting,value
[^125I]ET-1: radioiodinated endothelin-1 radioligand (PerkinElmer),Kd,[1],0.208 ± 0.002 nM
Cy 5.5 [reference compound],cellular fluorescence signal (fluorescence microscopy),[2],Negligible signals
same,cellular fluorescence signal (fluorescence microscopy),[3],Negligible signals
same,cellular fluorescence signal (fluorescence microscopy),[4],Negligible signals
CC[N+]1=C(/C=C/C=C/C=C2/N(CCCCCC(=O)NCCOCCOCCOCCOc3cc(CC4=C(c5ccc6c(c5)OCO6)C(=O)OC4(O)c4ccc(OC)cc4)cc(OC)c3OC)c3ccc4c(S(=O)(=O)O)cc(S(=O)(=O)O)cc4c3C2(C)C)C(C)(C)c2c1ccc1c(S(=O)(=O)O)cc(S(=O)(=O)O)cc21 (stereo not drawn) [ETAR-Cy 5.5],cellular fluorescence signal (fluorescence microscopy),[2]; listed as 17,higher fluorescence signal than human breast cancer cell line MCF-7; also recorded: highest cellular fluorescence
same,cellular fluorescence signal (fluorescence microscopy),[3],little to no cellular fluorescence
same,cellular fluorescence signal (fluorescence microscopy),[3]; listed as 17,no accumulation of the ligand; also recorded: do not bind the tracer
same,fluorescence signal of tumor xenografts by FRI and FMT,"[5]; MDA-MB 435 xenografts, 2 nmol i.v.",high fluorescence signal yields
same,mean (FMT-data),[5]; [9],253.57
same,pmol (FMT-data),[5]; [9],22.14 pmol
same,mean (FMT-data),[5]; [10],323.25
same,pmol (FMT-data),[5]; [10],17.25 pmol
same,mean (FMT-data),[5]; [11],343.78
same,pmol (FMT-data),[5]; [11],19.67 pmol
same,mean (FMT-data),[5]; [12],273.80
same,pmol (FMT-data),[5]; [12],34.80 pmol
same,mean (FMT-data),"[5]; MDA-MB-435, nativ, 1 h, 2 nmol",356.89
same,pmol (FMT-data),"[5]; MDA-MB-435, nativ, 1 h, 2 nmol",40.56 pmol
same,mean (FMT-data),"[5]; MDA-MB-435, nativ, 3 h, 2 nmol",326.33
same,pmol (FMT-data),"[5]; MDA-MB-435, nativ, 3 h, 2 nmol",27.67 pmol
same,mean (FMT-data),"[5]; MDA-MB-435, nativ, 5 h, 2 nmol",418.17
same,pmol (FMT-data),"[5]; MDA-MB-435, nativ, 5 h, 2 nmol",55.50 pmol
same,mean (FMT-data),[5]; [13],444.38
same,pmol (FMT-data),[5]; [13],63.57 pmol
same,mean (FMT-data),"[6]; MCF-7, block, 1 h",196.50
same,pmol (FMT-data),"[6]; MCF-7, block, 1 h",224.00 pmol
same,mean (FMT-data),"[6]; MCF-7, block, 3 h",66.50
same,pmol (FMT-data),"[6]; MCF-7, block, 3 h",274.50 pmol
same,mean (FMT-data),"[6]; MCF-7, block, 5 h",100.67
same,pmol (FMT-data),"[6]; MCF-7, block, 5 h",201.67 pmol
same,mean (FMT-data),"[6]; MCF-7, block, 24 h",125.50
same,pmol (FMT-data),"[6]; MCF-7, block, 24 h",9.00 pmol
same,mean (FMT-data),"[6]; MCF-7, nativ, 1 h",148.00
same,pmol (FMT-data),"[6]; MCF-7, nativ, 1 h",599.00 pmol
same,mean (FMT-data),"[6]; MCF-7, nativ, 3 h",79.00
same,pmol (FMT-data),"[6]; MCF-7, nativ, 3 h",339.00 pmol
same,mean (FMT-data),"[6]; MCF-7, nativ, 5 h",115.50
same,pmol (FMT-data),"[6]; MCF-7, nativ, 5 h",473.00 pmol
same,mean (FMT-data),"[6]; MCF-7, nativ, 24 h",207.67
same,pmol (FMT-data),"[6]; MCF-7, nativ, 24 h",33.00 pmol
same,fluorescence signal of tumor xenografts by FRI and FMT,"[6]; MCF-7 xenografts, 2 nmol i.v.",high fluorescence signal yields
same,cellular fluorescence signal (fluorescence microscopy),[4],high amounts of cellular fluorescence
same,cellular fluorescence signal (fluorescence microscopy),[4]; listed as 9,specific visualization of the ETA receptor
same,cellular fluorescence signal (fluorescence microscopy),[4]; listed as 17,allowed for visualisation of the ETA receptor; also recorded: only moderate cellular fluorescence
same,cellular fluorescence signal (fluorescence microscopy),[4]; listed as targeted fluorochrome,strong fluorescence signal
"COc1ccc(C2(O)OC(=O)C(c3ccc4c(c3)OCO4)=C2Cc2cc(OC)c(OC)c(OC)c2)cc1 (stereo not drawn) [PD 156707, 3-benzo[1,3]dioxol-5-yl-5-hydroxy-5-(4-methoxyphenyl)-4-(3,4,5-trimethoxybenzyl)-5H-furan-2-one, reference compound]",blocking of the binding/signal of conjugate 17,"[2]; HT-1080 cells (FIG. 4B), antibody 1.3 μg or tenfold excess PD 156707",Blocking of the signal was possible
same,tumor fluorescence of ETAR-Cy 5.5 after predosing,[5]; predosing with unmodified ETAR antagonist,significant decrease of tumor fluorescence
same,myocardial signal of the fluorophore after pre-dosing,[7],significantly reduced
same,IC50,[8],0.3 nM
same,blocking of the binding/signal of the Cy 5.5 conjugate,[4]; PD 156707 50 nmol (tenfold) or ETAR antibodies 1.3 μg,could be blocked; also recorded: Blocking of the signal was possible
same,cell behaviour at higher concentrations,[4]; conjugate and unlabelled antagonist up to 100 nmol,cells detached from the bottom of the flask
